Measured values published in the Kinase Knowledgebase extract (Sharma et al. 2016).
pIC50: −log10 of the molar value.

Legend:
PIK3CG (human) = PIK3CG (human) (UniProt P48736); test: Assessment of PIK3CG Kinase Activity
PIK3CA (human) [1] = target: PIK3CA (human) (UniProt P42336); test: Assessment of PIK3CA Kinase Activity
PIK3CB (Human) [2] = target: PIK3CB (Human) (UniProt P42338); test: Assessment of PIK3CB Kinase Activity
PIK3CD (Human) [3] = target: PIK3CD (Human) (UniProt O00329); test: Assessment of PIK3CD Kinase Activity in RAJI Cells
PIK3CD (Human), sequence (O00329 whole entry, looked up): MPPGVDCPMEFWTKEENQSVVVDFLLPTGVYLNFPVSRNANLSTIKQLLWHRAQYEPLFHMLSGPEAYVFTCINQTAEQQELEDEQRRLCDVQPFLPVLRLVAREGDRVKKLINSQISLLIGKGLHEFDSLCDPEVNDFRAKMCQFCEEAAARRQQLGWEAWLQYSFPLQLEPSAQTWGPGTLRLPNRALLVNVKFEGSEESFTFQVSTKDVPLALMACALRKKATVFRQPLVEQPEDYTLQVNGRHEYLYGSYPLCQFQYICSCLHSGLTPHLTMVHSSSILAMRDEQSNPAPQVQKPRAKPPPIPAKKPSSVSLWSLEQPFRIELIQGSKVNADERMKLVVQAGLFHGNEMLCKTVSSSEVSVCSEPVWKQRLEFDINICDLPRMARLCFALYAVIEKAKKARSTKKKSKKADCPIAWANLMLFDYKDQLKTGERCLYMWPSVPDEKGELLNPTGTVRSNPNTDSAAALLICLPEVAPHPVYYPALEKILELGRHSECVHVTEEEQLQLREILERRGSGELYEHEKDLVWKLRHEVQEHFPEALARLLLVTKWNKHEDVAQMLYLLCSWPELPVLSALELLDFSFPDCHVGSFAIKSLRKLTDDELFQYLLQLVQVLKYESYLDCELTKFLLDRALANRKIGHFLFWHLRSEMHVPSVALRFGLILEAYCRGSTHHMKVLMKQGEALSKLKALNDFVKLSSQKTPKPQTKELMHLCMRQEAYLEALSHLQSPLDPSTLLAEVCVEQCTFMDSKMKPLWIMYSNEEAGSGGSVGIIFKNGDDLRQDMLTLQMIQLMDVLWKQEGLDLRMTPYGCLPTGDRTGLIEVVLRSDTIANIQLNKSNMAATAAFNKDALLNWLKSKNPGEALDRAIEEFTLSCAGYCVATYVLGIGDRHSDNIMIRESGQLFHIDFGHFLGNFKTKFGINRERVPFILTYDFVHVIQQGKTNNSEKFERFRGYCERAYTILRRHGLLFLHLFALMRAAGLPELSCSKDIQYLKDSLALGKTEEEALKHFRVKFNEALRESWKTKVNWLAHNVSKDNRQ

PIK3CA (human) [4] = target: PIK3CA (human) (UniProt P42336); test: Assessment of PIK3CA Kinase Activity in SKOV-3 Cells
PIK3CD (Human) [5] = target: PIK3CD (Human) (UniProt O00329); test: Assessment of PIK3CD Kinase Activity
PIK3CB (Human) [6] = target: PIK3CB (Human) (UniProt P42338); test: Assessment of PIK3CB Kinase Activity in 786-O Cells

PIK3CG (human), sequence (P48736 whole entry, looked up): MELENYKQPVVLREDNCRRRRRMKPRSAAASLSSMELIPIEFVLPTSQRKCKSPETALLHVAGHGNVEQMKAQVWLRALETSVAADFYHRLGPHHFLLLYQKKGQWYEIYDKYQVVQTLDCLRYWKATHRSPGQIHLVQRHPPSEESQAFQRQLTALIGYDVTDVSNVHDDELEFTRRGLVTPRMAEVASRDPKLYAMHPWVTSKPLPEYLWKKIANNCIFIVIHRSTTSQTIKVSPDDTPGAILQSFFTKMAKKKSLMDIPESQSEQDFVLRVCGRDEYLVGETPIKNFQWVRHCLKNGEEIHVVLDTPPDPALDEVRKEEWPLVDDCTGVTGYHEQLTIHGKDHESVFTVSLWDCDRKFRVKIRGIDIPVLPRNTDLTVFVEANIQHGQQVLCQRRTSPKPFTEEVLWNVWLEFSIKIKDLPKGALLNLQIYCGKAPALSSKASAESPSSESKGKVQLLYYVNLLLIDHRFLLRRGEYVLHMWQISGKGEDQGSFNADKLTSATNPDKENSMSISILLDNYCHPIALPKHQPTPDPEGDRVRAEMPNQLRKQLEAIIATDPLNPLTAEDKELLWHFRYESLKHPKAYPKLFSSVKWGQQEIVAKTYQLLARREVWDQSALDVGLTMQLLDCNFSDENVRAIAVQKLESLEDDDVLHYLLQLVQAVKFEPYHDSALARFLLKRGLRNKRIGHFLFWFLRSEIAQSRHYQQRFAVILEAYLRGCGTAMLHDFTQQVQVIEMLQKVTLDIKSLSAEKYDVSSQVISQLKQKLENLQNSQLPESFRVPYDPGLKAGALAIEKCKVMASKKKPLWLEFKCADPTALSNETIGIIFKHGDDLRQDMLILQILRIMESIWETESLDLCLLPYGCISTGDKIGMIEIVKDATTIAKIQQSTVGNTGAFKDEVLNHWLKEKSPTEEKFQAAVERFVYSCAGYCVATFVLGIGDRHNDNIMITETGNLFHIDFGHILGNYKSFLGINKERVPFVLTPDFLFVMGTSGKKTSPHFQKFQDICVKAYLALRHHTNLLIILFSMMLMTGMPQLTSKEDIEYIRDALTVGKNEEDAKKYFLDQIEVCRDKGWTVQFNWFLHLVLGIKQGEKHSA
PIK3CB (Human), sequence (P42338 whole entry, looked up): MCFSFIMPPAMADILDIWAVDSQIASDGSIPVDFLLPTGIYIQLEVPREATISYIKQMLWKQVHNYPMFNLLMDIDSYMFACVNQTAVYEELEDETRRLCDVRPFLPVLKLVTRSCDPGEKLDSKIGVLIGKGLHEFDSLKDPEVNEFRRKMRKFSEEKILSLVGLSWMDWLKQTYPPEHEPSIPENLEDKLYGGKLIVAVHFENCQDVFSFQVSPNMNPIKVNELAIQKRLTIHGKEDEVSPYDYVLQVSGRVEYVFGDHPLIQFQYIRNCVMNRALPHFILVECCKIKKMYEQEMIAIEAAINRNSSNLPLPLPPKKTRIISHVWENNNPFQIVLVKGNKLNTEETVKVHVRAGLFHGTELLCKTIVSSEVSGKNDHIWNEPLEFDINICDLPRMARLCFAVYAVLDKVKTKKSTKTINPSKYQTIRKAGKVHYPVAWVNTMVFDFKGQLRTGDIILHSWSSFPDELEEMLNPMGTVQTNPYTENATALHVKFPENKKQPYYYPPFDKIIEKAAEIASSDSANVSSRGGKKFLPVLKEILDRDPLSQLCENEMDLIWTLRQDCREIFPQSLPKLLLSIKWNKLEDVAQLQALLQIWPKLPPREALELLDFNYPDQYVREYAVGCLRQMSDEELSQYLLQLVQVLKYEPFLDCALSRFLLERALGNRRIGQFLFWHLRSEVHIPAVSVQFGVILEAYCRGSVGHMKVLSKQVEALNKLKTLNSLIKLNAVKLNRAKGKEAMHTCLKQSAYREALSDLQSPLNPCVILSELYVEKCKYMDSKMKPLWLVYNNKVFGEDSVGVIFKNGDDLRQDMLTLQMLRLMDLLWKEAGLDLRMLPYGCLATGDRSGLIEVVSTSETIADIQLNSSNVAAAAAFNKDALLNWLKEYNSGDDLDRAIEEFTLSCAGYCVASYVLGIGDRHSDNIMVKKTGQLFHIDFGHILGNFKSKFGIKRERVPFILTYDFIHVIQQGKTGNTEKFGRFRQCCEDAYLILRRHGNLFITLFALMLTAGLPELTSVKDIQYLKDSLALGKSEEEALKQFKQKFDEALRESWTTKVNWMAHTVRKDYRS
PIK3CA (human), sequence (P42336 whole entry, looked up): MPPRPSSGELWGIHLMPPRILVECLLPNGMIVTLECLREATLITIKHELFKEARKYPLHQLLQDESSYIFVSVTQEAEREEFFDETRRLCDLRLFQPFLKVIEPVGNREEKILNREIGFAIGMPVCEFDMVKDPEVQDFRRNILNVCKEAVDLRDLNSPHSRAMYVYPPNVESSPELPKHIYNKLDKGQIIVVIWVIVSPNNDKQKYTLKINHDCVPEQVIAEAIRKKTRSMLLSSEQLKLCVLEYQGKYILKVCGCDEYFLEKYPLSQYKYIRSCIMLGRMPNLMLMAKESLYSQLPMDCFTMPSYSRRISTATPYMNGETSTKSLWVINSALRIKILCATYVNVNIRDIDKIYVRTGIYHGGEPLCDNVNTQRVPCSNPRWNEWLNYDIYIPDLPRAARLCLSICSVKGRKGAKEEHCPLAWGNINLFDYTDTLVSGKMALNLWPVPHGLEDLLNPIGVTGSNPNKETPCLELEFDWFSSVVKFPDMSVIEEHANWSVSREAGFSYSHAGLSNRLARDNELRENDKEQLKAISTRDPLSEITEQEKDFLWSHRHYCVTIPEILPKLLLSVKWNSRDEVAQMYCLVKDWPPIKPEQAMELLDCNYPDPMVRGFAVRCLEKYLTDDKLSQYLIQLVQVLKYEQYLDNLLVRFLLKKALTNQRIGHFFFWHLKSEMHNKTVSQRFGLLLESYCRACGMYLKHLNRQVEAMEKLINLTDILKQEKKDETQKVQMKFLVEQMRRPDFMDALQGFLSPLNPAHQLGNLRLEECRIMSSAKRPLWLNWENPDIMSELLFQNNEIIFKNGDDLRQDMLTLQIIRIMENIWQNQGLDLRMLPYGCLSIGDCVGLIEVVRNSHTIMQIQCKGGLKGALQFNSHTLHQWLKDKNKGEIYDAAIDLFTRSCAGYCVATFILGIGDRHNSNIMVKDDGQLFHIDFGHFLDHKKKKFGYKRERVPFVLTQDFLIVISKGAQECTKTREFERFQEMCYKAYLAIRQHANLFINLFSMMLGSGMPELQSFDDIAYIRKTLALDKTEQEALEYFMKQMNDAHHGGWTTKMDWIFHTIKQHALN

**Q.** What does the source list for `C[C@H](Nc1nc(N)ncc1C#N)c1cc2cccc(Cl)c2c(C(=O)NC2CCOCC2)n1`?
**A.** pIC50 (PIK3CG (human)): < 5.00; pIC50 (PIK3CA (human) [1]): < 5.00; pIC50 (PIK3CB (Human) [2]): < 5.00; pIC50 (PIK3CD (Human) [3]): > 7.00; pIC50 (PIK3CA (human) [4]): < 5.00

**Q.** Which results are given for `COc1nc(-c2cnc(N)nc2N[C@@H](C)c2cc3cccc(-c4ccc(=O)n(C)c4)c3c(=O)n2-c2ccccc2)cs1`?
**A.** pIC50 (PIK3CD (Human) [5]): > 7.00; pIC50 (PIK3CG (human)): > 7.00; pIC50 (PIK3CA (human) [1]): < 5.00; pIC50 (PIK3CB (Human) [2]): < 5.00; pIC50 (PIK3CD (Human) [3]): > 7.00; pIC50 (PIK3CA (human) [4]): < 5.00; pIC50 (PIK3CB (Human) [6]): < 5.00

**Q.** With `Cc1ncc(-c2cccc3cc([C@H](C)Nc4nc(N)ncc4C#N)n(C(C)C)c(=O)c23)cn1` as the molecule, how does the pIC50 (PIK3CD (Human) [5]) read?
**A.** Its pIC50 is over 7.00.

**Q.** And the pIC50 (PIK3CA (human) [1])?
**A.** Its pIC50 is under 5.00.

**Q.** And the pIC50 (PIK3CB (Human) [2])?
**A.** The pIC50 was under 5.00.

**Q.** And the pIC50 (PIK3CD (Human) [3])?
**A.** The pIC50 was over 7.00.

**Q.** And the pIC50 (PIK3CA (human) [4])?
**A.** Its pIC50 is 6.00 to 7.00.

**Q.** With `CC(C)n1c([C@H](C)Nc2ncnc(N)c2C#N)cc2cccc(-c3ccc(=O)n(C)c3)c2c1=O` as the molecule, how does the pIC50 (PIK3CD (Human) [5]) read?
**A.** Its pIC50 is over 7.00.

**Q.** And the pIC50 (PIK3CG (human))?
**A.** Its pIC50 is 6.00 to 7.00.

**Q.** What about the pIC50 (PIK3CD (Human) [3]) of the same molecule?
**A.** The pIC50 was over 7.00.

**Q.** And the pIC50 (PIK3CB (Human) [6])?
**A.** The pIC50 was 6.00 to 7.00.

**Q.** `CC(C)n1c([C@H](C)Nc2nc(N)ncc2C#N)cc2cccc(-c3ccc(=O)n(C)c3)c2c1=O` was tested. Which pIC50 (PIK3CD (Human) [5]) did it give?
**A.** The pIC50 was over 7.00.

**Q.** What about the pIC50 (PIK3CG (human)) of the same molecule?
**A.** Its pIC50 is 6.00 to 7.00.

**Q.** What about the pIC50 (PIK3CD (Human) [3]) of the same molecule?
**A.** The pIC50 was over 7.00.

**Q.** What about the pIC50 (PIK3CB (Human) [6]) of the same molecule?
**A.** The pIC50 was 6.00 to 7.00.

**Q.** `CC(C)OC(=O)c1cccc(-n2c([C@H](C)Nc3nc(N)ncc3C#N)cc3cccc(Cl)c3c2=O)c1` was tested. Which pIC50 (PIK3CD (Human) [5]) did it give?
**A.** Its pIC50 is 6.00 to 7.00.

**Q.** And the pIC50 (PIK3CG (human))?
**A.** Its pIC50 is 6.00 to 7.00.

**Q.** What about the pIC50 (PIK3CA (human) [1]) of the same molecule?
**A.** The pIC50 was under 5.00.

**Q.** And the pIC50 (PIK3CB (Human) [2])?
**A.** The pIC50 was under 5.00.

**Q.** What about the pIC50 (PIK3CD (Human) [3]) of the same molecule?
**A.** The pIC50 was over 7.00.

**Q.** `C[C@H](Nc1nc(N)ncc1-c1cccc(NS(=O)(=O)N(C)C)c1)c1cc2cccc(Cl)c2c(=O)n1-c1ccccc1` was tested. Which pIC50 (PIK3CD (Human) [5]) did it give?
**A.** Its pIC50 is over 7.00.

**Q.** And the pIC50 (PIK3CG (human))?
**A.** Its pIC50 is over 7.00.

**Q.** And the pIC50 (PIK3CA (human) [1])?
**A.** The pIC50 was under 5.00.

**Q.** And the pIC50 (PIK3CB (Human) [2])?
**A.** The pIC50 was 6.00 to 7.00.

**Q.** And the pIC50 (PIK3CD (Human) [3])?
**A.** Its pIC50 is over 7.00.

**Q.** `COc1ncc(-c2cccc3cc([C@H](C)Nc4nc(N)ncc4C#N)n(-c4ccccc4)c(=O)c23)cn1` was tested. Which pIC50 (PIK3CD (Human) [5]) did it give?
**A.** Its pIC50 is over 7.00.

**Q.** And the pIC50 (PIK3CG (human))?
**A.** Its pIC50 is over 7.00.

**Q.** What about the pIC50 (PIK3CB (Human) [2]) of the same molecule?
**A.** The pIC50 was under 5.00.

**Q.** What about the pIC50 (PIK3CD (Human) [3]) of the same molecule?
**A.** The pIC50 was over 7.00.

**Q.** What about the pIC50 (PIK3CB (Human) [6]) of the same molecule?
**A.** Its pIC50 is under 5.00.

**Q.** `CCOc1nc(-c2cnc(N)nc2N[C@@H](C)c2cc3cccc(-c4ccc(=O)n(C)c4)c3c(=O)n2-c2ccccc2)cs1` was tested. Which pIC50 (PIK3CD (Human) [5]) did it give?
**A.** The pIC50 was over 7.00.

**Q.** And the pIC50 (PIK3CG (human))?
**A.** The pIC50 was over 7.00.

**Q.** And the pIC50 (PIK3CD (Human) [3])?
**A.** Its pIC50 is over 7.00.

**Q.** And the pIC50 (PIK3CA (human) [4])?
**A.** The pIC50 was 6.00 to 7.00.
